Experimental data published in paper PMC8380212, “^18F-labeled tracers targeting fibroblast activation protein” (EJNMMI Radiopharmacy and Chemistry, 2021).

What was measured:
[1] = Determination of logD values (1-octanol / PBS); format: physicochemical; settings: 1-octanol / phosphate buffered saline, pH 7.4
Description: All experiments for the determination of logD values were performed in triplicate. For the determination by means of radioactivity, around 5 × 10^6 cpm in ca. 1 µL of radioactive stock solutions (water/acetonitrile 1:1) were added to 100 µL phosphate buffered saline (PBS, pH 7.4) and 100 µL of 1-octanol. The mixture was vortexed for 1 min, followed by 5 min of centrifugation for phase separation. A sample of each phase (10 or 50 µL) was measured for radioactivity per volume (Packard Cobra II Autogamma, GMI Inc., USA). In case of FAPI-72 and -73, the reference compounds [^19F]-FAPI-72 and -73 were dissolved in PBS at a concentration of 1 mg/mL. 50 µL of these solutions were each mixed with 50 µL 1-octanol and processed by vortexing and centrifugation as described above. 1 µL of each phase was analyzed by HPLC and the individual content of compound was determined by peak integration. The area under the peaks of the individual runs was used to calculate the log D value.
Fig. 1 Overview of the synthesized precursors discussed in this study. The corresponding log D values were determined by detection of the radiolabeled tracer in 1-octanol and phosphate buffered saline (pH 7). For values labeled with an asterix, the log D was calculated from the relative content of the non-radioactive reference standards in the 1-octanol and the water phase by HPLC analysis and peak integration TEXT PRINTED IN THE PICTURE: FAPI-42: LOG D: -1.63±0.06 | FAPI-52: LOG D: -1.90±0.02 | FAPI-72: LOG D: 1.20±0.01* | FAPI-73: LOG D: 1.13±0.05* | FAPI-74: LOG D: -2.42±0.03 | FAPI-75: LOG D: -3.36±0.12 | FAPI-76: LOG D: -2.86±0.07

[2] = target: T1, FAP‐transfected HT‐1080‐FAP cells (Homo sapiens, UniProt Q12884); test: In vitro binding/uptake on FAP-transfected HT-1080-FAP cells; format: cell-based; settings: HT1080-FAP cells; for uptake 10 min: 10 min incubation; for uptake 60 min: 60 min incubation; for uptake, measurement at 90 min: printed in 120 min column, footnote a: 90 min; for uptake 120 min: 120 min incubation
T1 construct: expressed in transfected cells; host or cells: HT-1080 cells transfected with FAP (HT-1080-FAP)
T1 sequence (Q12884 1-760): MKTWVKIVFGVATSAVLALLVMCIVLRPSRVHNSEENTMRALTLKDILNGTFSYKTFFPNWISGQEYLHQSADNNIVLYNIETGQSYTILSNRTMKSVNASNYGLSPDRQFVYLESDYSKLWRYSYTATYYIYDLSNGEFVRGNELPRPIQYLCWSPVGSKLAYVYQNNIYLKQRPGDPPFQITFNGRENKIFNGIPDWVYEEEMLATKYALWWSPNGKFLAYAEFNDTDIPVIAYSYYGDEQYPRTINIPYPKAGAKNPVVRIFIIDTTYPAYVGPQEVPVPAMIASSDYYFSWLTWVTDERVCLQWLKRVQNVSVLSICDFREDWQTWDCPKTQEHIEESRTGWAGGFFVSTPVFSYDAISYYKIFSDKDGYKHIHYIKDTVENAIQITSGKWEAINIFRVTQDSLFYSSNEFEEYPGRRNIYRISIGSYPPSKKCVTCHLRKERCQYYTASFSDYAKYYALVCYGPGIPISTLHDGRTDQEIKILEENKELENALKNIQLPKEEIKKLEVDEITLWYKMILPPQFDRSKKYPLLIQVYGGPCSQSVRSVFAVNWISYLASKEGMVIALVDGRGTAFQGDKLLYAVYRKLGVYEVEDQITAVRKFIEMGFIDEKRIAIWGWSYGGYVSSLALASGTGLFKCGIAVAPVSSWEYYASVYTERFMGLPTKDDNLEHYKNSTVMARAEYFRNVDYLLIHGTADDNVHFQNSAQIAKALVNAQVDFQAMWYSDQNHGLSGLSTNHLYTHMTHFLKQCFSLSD
Description: (§1) The binding properties of the FAPI derivatives were evaluated using the FAP‐transfected HT‐1080‐FAP and CD26 expressing HEK-CD26 cells. All cells were cultivated in Dulbecco's modified Eagle's medium (DMEM) containing 10% fetal calf serum (FCS) at 37 °C/5% carbon dioxide. Cells were seeded in 6-well plates and cultivated to a final confluence of approximately 80–90% (1.2 to 2.0 × 10^6 cells/well). After washing with FCS free medium, for each well ca. 3 kBq of the radiolabeled compound (10–20 GBq/µmol for [^18F]AlF-labeling) was added to the cells in FCS free medium. On completion of the individual incubation time, cells were washed with PBS and treated with 1.4 mL lysis buffer (0.3 m NaOH, 0.2% SDS) before being transferred to measuring tubes. Competition experiments were performed by co-incubation with the unlabeled precursor for 60 min. Radioactivity was determined in a Wizard Gamma Counter (Perkin Elmer), normalized to 10^6 cells and calculated as percentage of the applied dose (%AD). Each experiment was performed in triplicate.

[3] = target: T2, FAP (HT-1080-FAP cells) (Homo sapiens, UniProt Q12884); test: Competition experiments with unlabeled precursor on HT-1080-FAP cells; format: binding; settings: co-incubation with unlabeled precursor for 60 min
T2 construct: expressed in transfected cells; host or cells: HT-1080 cells transfected with FAP (HT-1080-FAP)
T2 sequence (Q12884 1-760): T1 sequence (Q12884 1-760)
Description: as §1

[4] = tested on: HT-1080-FAP xenografts; test: Small animal PET imaging; format: in vivo, BALB/c nu/nu mice; settings: for Tumor Uptake (SUVmean) 8 min / Tumor Uptake (SUVmean) 22 min / Tumor Uptake (SUVmean) 57 min / Tumor Uptake (SUVmean) 120 min: HT1080-FAP transplanted nude mice
Description: Eight-week-old BALB/c nu/nu mice (Charles River) were subcutaneously inoculated with 5 × 10^6 HT-1080-FAP cells. The subcutaneous xenografts were grown at the flanks of the mice. Xenografts were grown to a tumor diameter of 10–15 mm. Mice were anesthetized using isoflurane inhalation. 5–10 MBq of the [^18F]AlF-labeled compounds/ the respective tracer (FAPI-42/52/74/75/76; approx. 0.5 nmol; Am approximately 10–20 GBq/µmol) were injected intravenously for PET imaging. In vivo competition (blocking) experiments with ^68 Ga-FAPI-74 (9 MBq; 18.2 GBq/µmol) were performed by adding 30 nmol of unlabeled FAPI-74 to the injection solution. Images were acquired using a small-animal PET scanner (Inveon, Siemens). Within the first 60 min p.i., a dynamic scan was performed in list mode, followed by a static scan from 120–140 min post injection. Images were reconstructed iteratively using the 3D-OSEM + MAP method (Siemens) and were converted to standardized uptake value (SUV). For the dynamic analysis, 28 frames were reconstructed. Quantification was based on ROI analysis and expressed as SUV.
SUPPLEMENTAL TABLE 1: Tumor-SUVmean values of all mentioned ^18F labeled FAPI-derivatives in HT1080-FAP transplanted nude mice at different time points. The time points 8 min, 22 min and 57 min were selected from the applied 28-frame 3D-OSEM+MAP (Siemens) reconstruction method.

[5] = target: T3, CD26 expressing HEK-CD26 cells (Homo sapiens, UniProt P27487); test: In vitro binding on HEK-CD26 cells (negative control); format: cell-based
T3 construct: expressed in transfected cells; host or cells: HEK cells transfected with CD26/DPP4 (HEK-CD26)
Description: as §1

[6] = tested on: wild type HT1080 cells; test: In vitro binding on wild type HT1080 cells (negative control); format: cell-based
Description: as §1
Table 1 summarizes the uptake and EC50 values of the discussed ^18F-labeled FAPI derivatives using the FAP-transfected cell line HT-1080-FAP. Additionally, the lead candidates FAPI-74 to -76 were tested on HEK-CD26 as well as -74 and -75 on wild type HT1080 cells as negative control. […] For FAPI-74, a plateau was already reached after approximately 10 min with 27.2 ± 0.88%AD/10^6cells. […] The EC50 values were all in the low to sub-nanomolar range. Only a neglectable fraction of FAPIs 74–76 were detected on HEK-CD26 cells (0.18–0.24%) as well as on wildtype HT1080 in case of -74 and 75 (< 0.1%).

[7] = tested on: U87MG- and A549-xenograft models; settings: in vivo; cited from earlier work
[8] = non-radioactive reference standards, 1-octanol and water phase, HPLC analysis and peak integration (asterisk)
[9] = small animal PET, HT-1080-FAP xenograft
[10] = radiolabeled tracer detected by radioactivity in 1-octanol and phosphate buffered saline

T3 sequence (P27487 whole entry): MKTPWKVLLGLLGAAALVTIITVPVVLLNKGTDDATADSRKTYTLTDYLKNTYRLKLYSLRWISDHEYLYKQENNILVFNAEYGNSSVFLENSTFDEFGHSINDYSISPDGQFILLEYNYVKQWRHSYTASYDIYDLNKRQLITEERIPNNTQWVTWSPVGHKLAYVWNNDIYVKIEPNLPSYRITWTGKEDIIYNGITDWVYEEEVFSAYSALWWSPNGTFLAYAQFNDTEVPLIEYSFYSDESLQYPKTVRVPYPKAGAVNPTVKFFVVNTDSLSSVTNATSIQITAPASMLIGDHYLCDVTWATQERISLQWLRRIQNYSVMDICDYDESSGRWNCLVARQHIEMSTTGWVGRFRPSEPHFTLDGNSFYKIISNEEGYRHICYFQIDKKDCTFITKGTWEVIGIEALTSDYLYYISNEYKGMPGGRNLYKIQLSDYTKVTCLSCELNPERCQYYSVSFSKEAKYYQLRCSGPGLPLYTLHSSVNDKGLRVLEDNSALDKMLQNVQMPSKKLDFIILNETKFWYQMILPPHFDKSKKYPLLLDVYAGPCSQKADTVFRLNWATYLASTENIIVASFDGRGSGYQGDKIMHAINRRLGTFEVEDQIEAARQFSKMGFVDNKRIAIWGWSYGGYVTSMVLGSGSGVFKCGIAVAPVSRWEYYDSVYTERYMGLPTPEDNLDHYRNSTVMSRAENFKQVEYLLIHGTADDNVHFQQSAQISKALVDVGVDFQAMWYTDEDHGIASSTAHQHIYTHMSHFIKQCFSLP

## C[N+](C)(C)c1ccc(C(=O)N2CCN(CCCOc3ccc4nccc(C(=O)NCC(=O)N5CC(F)(F)C[C@H]5C#N)c4c3)CC2)cn1 [FAPI-73]
[1]; [8]
  logD: 1.13 ± 0.05
[2]
  uptake 10 min: 22.7 ± 0.24 %AD/10^6 cells
  uptake 60 min: 39.2 ± 0.48 %AD/10^6 cells
  uptake, measurement at 90 min: 39.6 ± 0.95^a %AD/10^6 cells
[3]
  EC50: < 1 nM
[4]
  Tumor Uptake (SUVmean) 8 min: 0.45
  Tumor Uptake (SUVmean) 22 min: 0.44
  Tumor Uptake (SUVmean) 57 min: 0.42
  Tumor Uptake (SUVmean) 120 min: 0.33
[4]; [9]
  detectability of tumor region in PET: hardly detectable

## CN(CCCN1CCN(C(=O)CN2CCN(CC(=O)O)CCN(CC(=O)O)CC2)CC1)c1ccc2nccc(C(=O)NCC(=O)N3CC(F)(F)C[C@H]3C#N)c2c1 [FAPI-52]
[1]; [10]
  logD: -1.9 ± 0.02
[2]
  uptake 10 min: 32.0 ± 0.28 %AD/10^6 cells
  uptake 60 min: 45.9 ± 0.54 %AD/10^6 cells
  uptake 120 min: 53.2 ± 1.38 %AD/10^6 cells
[3]
  EC50: 3.2 nM
[4]
  Tumor Uptake (SUVmean) 8 min: 0.65
  Tumor Uptake (SUVmean) 22 min: 0.55
  Tumor Uptake (SUVmean) 57 min: 0.47
  Tumor Uptake (SUVmean) 120 min: 0.20

## N#C[C@@H]1CC(F)(F)CN1C(=O)CNC(=O)c1ccnc2ccc(OCCCN3CCN(C(=O)[C@H](CC(C(=O)O)C(=O)O)NC(=O)CN4CCN(CC(=O)O)CCN(CC(=O)O)CC4)CC3)cc12 [FAPI-75]
[1]; [10]
  logD: -3.36 ± 0.12
[2]
  uptake 10 min: 34.9 ± 0.26 %AD/10^6 cells
  uptake 60 min: 74.0 ± 2.07 %AD/10^6 cells
  uptake 120 min: 82.35 ± 3.61 %AD/10^6 cells
[5]
  uptake CD26: 0.18 ± 0.02 %AD/10^6 cells
[6]; wild type HT1080 control cells
  uptake WT: 0.06 ± 0.01 %AD/10^6 cells
[6]; wildtype HT1080, text
  fraction detected on wildtype HT1080: < 0.1%
[3]
  EC50: 3.1 nM
[4]
  Tumor Uptake (SUVmean) 8 min: 1.55
  Tumor Uptake (SUVmean) 22 min: 2.06
  Tumor Uptake (SUVmean) 57 min: 2.24
  Tumor Uptake (SUVmean) 120 min: 1.9
[4]; small animal PET in tumor bearing mice
  excretion pathway: favorable renal excretion
[4]; small animal PET screening, discussion
  tumor uptake SUVmean: approx. 2.0
[4]; [9]
  tumor-SUV max: 3.7
  tumor-SUV mean: 2.2

## CN(CCCN1CCN(C(=O)c2ccc([N+](C)(C)C)nc2)CC1)c1ccc2nccc(C(=O)NCC(=O)N3CC(F)(F)C[C@H]3C#N)c2c1 [FAPI-72]
[1]; [8]
  logD: 1.2 ± 0.01
[2]
  uptake 10 min: 13.9 ± 0.60 %AD/10^6 cells
  uptake 60 min: 23.6 ± 0.40 %AD/10^6 cells
  uptake, measurement at 90 min: 24.4 ± 0.30^a %AD/10^6 cells
[3]
  EC50: < 1 nM
[4]
  Tumor Uptake (SUVmean) 8 min: 0.19
  Tumor Uptake (SUVmean) 22 min: 0.15
  Tumor Uptake (SUVmean) 57 min: 0.13
  Tumor Uptake (SUVmean) 120 min: 0.1
[4]; [9]
  detectability of tumor region in PET: hardly detectable

## N#C[C@@H]1CC(F)(F)CN1C(=O)CNC(=O)c1ccnc2ccc(OCCCN3CCN(C(=O)CN4CCN(CC(=O)O)CCN(CC(=O)O)CC4)CC3)cc12 [FAPI-42]
[1]; [10]
  logD: -1.63 ± 0.06
[2]
  uptake 10 min: 40.0 ± 1.73 %AD/10^6 cells
  uptake 60 min: 61.2 ± 1.76 %AD/10^6 cells
  uptake 120 min: 58.0 ± 2.24 %AD/10^6 cells
[3]
  EC50: 3.3 nM
[4]
  Tumor Uptake (SUVmean) 8 min: 1.05
  Tumor Uptake (SUVmean) 22 min: 1.0
  Tumor Uptake (SUVmean) 57 min: 0.73
  Tumor Uptake (SUVmean) 120 min: 0.60
[4]; small animal PET screening, early timepoints
  tumor uptake SUVmean at early timepoints: approx. 1.0
[7]
  elimination and bone accumulation: hepatobiliary elimination together with an accumulation in the bone
